From patent US4188378A, “Anticancer and antiviral activity of 9-β-D-arabinofuranosyl-2-fluoroadenine” (The United States of America as represented by the …, priority 1978, dated 1980)
Entries after “also recorded” stand apart in the source; their conditions may differ. Read-outs that look alike come from different tables or passages of the source.

Experiments:
[1] = system: Herpes Simplex Virus Type 1; test: In vitro antiviral activity, Virus Rating; format: cell-based
L1210 cells [2] = test: DNA synthesis in L1210 cells in vivo; parameters: species or system mice; details: 80 mg/kg, for 7 hours after treatment
Method: Protein synthesis was less affected and RNA synthesis was not inhibited under the same experimental conditions.
(§1) Relative to activity against leukemia and antiviral activity, the following summation was found: Levels of F-AraATP in acid-soluble extracts prepared from L1210 and P388 leukemia cells in mice treated with 2-F-AraA (80 mg/kg) were determined by HPLC. […] Inhibition of DNA synthesis by 2-F-AraA (80 mg/kg) in L1210 and P388 leukemia cells in vivo was pronounced for 7 hours after treatment. […] 2-F-AraA was effective against P388 leukemia; % increase in median life span of mice treated with 80 and 52 mg/kg (q3hrsx8; days 1,5,9 after implant of 10^6 cells) was 170% and 150%.

Leukemia L1210 = test: Therapeutic activity against leukemia L1210 implanted i.p. in mice; format: in vivo
Excerpt: (§2) Inhibition of DNA polymerase is considered to be responsible for the biologic activity of AraA. The levels of F-AraATP attainable in leukemia L1210 cells in mice from the administration of 2-F-AraA are much higher than the level of AraATP atainable in these cells after administration of AraA. As a result of the maintenance of these levels of the inhibitor, F-AraATP, in them, the leukemia cells are effectively destroyed in animals. […] 2-F-AraA was also active against leukemia L1210 when administered by the oral route.
^a 10^5 L1210 ascites cells implanted i.p. on day 0.
^b Treatments reported were selected from a range of dose levels from
lethally toxic to apparently nontoxic.
more than 16% (1/6 treated mice) dying without gross evidence of
progressive leukemia (splenomegaly), except those treated orally, in whic
^c i.p. = intraperitoneal; oral = drug administered directly into
^d % ILS = % increase in life span, compared to untreated control;
excluding 60day survivors.
^e Based on median day of death in dying animals only. Figures in
parentheses based on % survivors.
2-F-AraA was given i.p. or orally on the basis of average mouse body weight. Therapeutic activity based on observed increase in median life span of treated animals over untreated controls and on estimates of the number of viable L1210 cells present at the end of treatment is summarized in Table 2.

Vaccinia Virus = format: cell-based
P388 leukemia cells = test: F-AraATP levels in P388 leukemia cells of treated mice (HPLC); format: in vivo; details: 80 mg/kg
Method: as §1

adenosine deaminase = test: Deamination by adenosine deaminase in vitro and in vivo; format: in vitro ADME
Excerpt: as §2
(§3) It has been noted that the antitumor activity of the parent compound, 9-β-D-arabinofuranosyladenine (AraA), is enhanced by inhibition of adenosine deaminase and inhibition of DNA synthesis in tumor cells by AraA also is enhanced by concurrent inhibition of adenosine deaminase. […] This observation that 2-fluoroadenosine is not such a substrate for adenosine deaminase led to the synthesis of 9-β-D-arabinofuranosyl-2-fluoroadenine (2-F-AraA). […] The intracellular concentration of 2-F-AraATP in L1210 cells was 45, 156 and 220 nanomoles per 10^9 cells three hours after intraperitoneal treatment with 80, 150 and 400 mg/kg of 2-F-AraA.

L1210 cells [3] = test: Macromolecular synthesis in L1210 cells in culture (radiolabel incorporation); format: cell-based; details: for activity at 1 µg/mL / activity at 3 µg/mL / activity at 10 µg/mL / inhibition at 10 µg/mL: Mus musculus, L1210; for activity at 1 µg/mL: 1.0 μg/ml; for activity at 3 µg/mL: 3.0 μg/ml; for activity at 10 µg/mL: 10.0 μg/ml
Method: ^a Inhibitor was added to L1210 cells growing in culture; radioactive
substrate was added 30 min. later.
hrs after addition of radioactive substrate to culture medium.
^b Incorporation of [C^3 H3 thymidine or [5^3 Huridine
^c Incorporation of [5^3 Huridine into RNA.
^d Incorporation of [4,5^3 HL-leucine into protein.

Rhinovirus Type 1A = test: In vitro antiviral activity, Virus Rating; format: cell-based; details: average VR adjusted for number of Microtiter wells; VR ≤0.5 no significant activity
Excerpt: (§4) *Virus Rating (VR): A weighted measurement of antiviral activity which
(§5) takes into account the degree of virusspecific cytopathogenic effect
(§6) (cpe)inhibition, toxicity, and virus concentration, as determined by a
(§7) modification of the methods of Ehrlich et al. (Ann. N.Y. Acad. Sci. 140:7
(§8) 1965). In our experience, a VR≥1.0 indicates definite antiviral
(§9) activity; a VR of 0.5-0.9 indicates moderate antiviral activity; and a VR
(§10) ≤0.5 indicates no significant antiviral activity.
(§11) ^+ Average VR adjusted for number of Microtiter wells employed.

Human Cytomegalovirus = test: In vitro antiviral activity, Virus Rating; format: cell-based; details: average VR adjusted for number of Microtiter wells; VR ≤0.5 no significant activity
Excerpt: as §4, §5, §6, §7, §8, §9, §10, §11

[4] = system: Parainfluenza Virus Type 3; test: In vitro antiviral activity, Virus Rating; format: cell-based; details: average VR adjusted for number of Microtiter wells; VR ≤0.5 no significant activity
Excerpt: as §4, §5, §6, §7, §8, §9, §10, §11

L1210 cells [5] = test: Intracellular 2-F-AraATP levels in L1210 cells of treated mice; format: in vivo; details: for level of F-AraATP in acid-soluble extracts (HPLC): L1210 cells, 80 mg/kg
Excerpt: as §3, §1

[6] = average VR adjusted for number of Microtiter wells, VR≥1.0 definite activity
[7] = Expt. 1, 100 mg/kg/dose q3h × 8, days 1,5,9, i.p.
[8] = Expt. 2, 100 mg/kg/dose q6h × 4, days 1,5,9, i.p.
[9] = Expt. 2, 150 mg/kg/dose q3h × 8, days 1,5,9, oral
[10] = Expt. 2, 400 mg/kg/dose q12h × 2, days 1,5,9, i.p.
[11] = second line of the same regimen: 100 mg/kg/dose q3h × 8, days 1,5,9, i.p.
[12] = read-out: DNA synthesis, TdR-3H incorporation, Treated as % of Control
[13] = read-out: DNA synthesis, UR-3H incorporation, Treated as % of Control
[14] = read-out: Protein synthesis, Leu-3H incorporation, Treated as % of Control
[15] = read-out: RNA synthesis, UR-3H incorporation, Treated as % of Control
[16] = same experimental conditions as Table 1

SMILES: Nc1nc(F)nc2c1ncn2[C@@H]1O[C@H](CO)[C@@H](O)[C@@H]1O [2-F-AraA, 9-β-D-arabinofuranosyl-2-fluoroadenine]
- activity against the virus [1]: demonstrated activity
- Virus Rating (VR) [1, 6]: 1.4
- inhibition of DNA synthesis in vivo (L1210 cells [2]): pronounced
- increase in life span of animals dying of leukemia (Leukemia L1210; 100 mg/kg i.p. once every three hours on days 1, 5, 9, 10^5 cells, 4 of 6 animals): 123-155%
- animals deemed recovered from the disease (Leukemia L1210; 100 mg/kg i.p. once every three hours on days 1, 5, 9, of 6 animals): two
- therapeutic result compared with the 100 mg/kg q3h regimen (Leukemia L1210; 400 mg/kg twice a day on days 1, 5, 9): Comparable results
- therapeutic activity against L1210 leukemia (Leukemia L1210; 2-F-AraA alone, BDFl mice, 10^5 cells i.p.): reproducible therapeutic activity; also recorded: therapeutically effective
- 60-Day Survivors (Leukemia L1210; [7]): 2/6
- Estimated No. L1210 Cells Surviving Therapy (based on median day of death) (Leukemia L1210; [7]): 4 × 10^4
- Estimated No. L1210 Cells Surviving Therapy (in parentheses, based on % survivors) (Leukemia L1210; [7]): 1.1
- Median % ILS (Leukemia L1210; [7]): 123%
- Median Day of Death (Dying Mice Only), Treated (Leukemia L1210; Expt. 1, 100 mg/kg/dose q3h × 8, days 1,5,9, i.p., control 8.5): 19
- 60-Day Survivors (Leukemia L1210; [8]): 0/6
- Estimated No. L1210 Cells Surviving Therapy (based on median day of death) (Leukemia L1210; [8]): 3 × 10^6
- Median % ILS (Leukemia L1210; [8]): 83%
- Median Day of Death (Dying Mice Only), Treated (Leukemia L1210; Expt. 2, 100 mg/kg/dose q6h × 4, days 1,5,9, i.p., control 9): 16.5
- Estimated No. L1210 Cells Surviving Therapy (based on median day of death) (Leukemia L1210; [9]): 2 × 10^7
- Median % ILS (Leukemia L1210; [9]): 66%
- Median Day of Death (Dying Mice Only), Treated (Leukemia L1210; Expt. 2, 150 mg/kg/dose q3h × 8, days 1,5,9, oral, control 9): 15
- 60-Day Survivors (Leukemia L1210; [10]): 1/6
- Estimated No. L1210 Cells Surviving Therapy (based on median day of death) (Leukemia L1210; [10]): 2 × 10^3
- Estimated No. L1210 Cells Surviving Therapy (in parentheses, based on % survivors) (Leukemia L1210; [10]): 1.8
- Median % ILS (Leukemia L1210; [10]): 144%
- Median Day of Death (Dying Mice Only), Treated (Leukemia L1210; Expt. 2, 400 mg/kg/dose q12h × 2, days 1,5,9, i.p., control 9): 22
- treated mice dying without gross evidence of progressive leukemia (splenomegaly) (Leukemia L1210; i.p. treatments reported in Table 2 (1/6 treated mice)): ≤ 16%
- toxicity over the dose range tested (Leukemia L1210; mice treated orally): no toxic levels
- activity against leukemia L1210 (Leukemia L1210; oral route): some therapeutic activity; also recorded: active
- 60-Day Survivors (Leukemia L1210; [11]): 1/6
- Estimated No. L1210 Cells Surviving Therapy (based on median day of death) (Leukemia L1210; [11]): 5 × 10^2
- Estimated No. L1210 Cells Surviving Therapy (in parentheses, based on % survivors) (Leukemia L1210; [11]): 1.8
- Median % ILS (Leukemia L1210; [11]): 155%
- Median Day of Death (Dying Mice Only), Treated (Leukemia L1210; second line of the same regimen: 100 mg/kg/dose q3h × 8, days 1,5,9, i.p., control 9): 23
- Virus Rating (VR) (Vaccinia Virus; [6]): 1.3
- activity against the virus (Vaccinia Virus; grown in H.Ep.-2 cells in culture): demonstrated activity
- level of F-AraATP in acid-soluble extracts (HPLC) (P388 leukemia cells; 1 to 6 hours after treatment): 30-50 nmoles/gm cells
- level of F-AraATP in acid-soluble extracts (HPLC) (P388 leukemia cells; 9 hours after treatment): none was detected
- deamination by adenosine deaminase (adenosine deaminase): not a substrate for adenosine deaminase; also recorded: not deaminated; also recorded: completely resistant to deamination
- DNA synthesis in L1210 cells in culture (L1210 cells [3]): inhibited DNA synthesis
- inhibition of RNA synthesis (L1210 cells [3]; 10 μg/ml): generally not inhibited
- activity at 1 µg/mL (L1210 cells [3]; [12]): 102%
- activity at 1 µg/mL (L1210 cells [3]; [13]): 84%
- activity at 1 µg/mL (L1210 cells [3]; [14]): 119%
- activity at 1 µg/mL (L1210 cells [3]; [15]): 135%
- activity at 3 µg/mL (L1210 cells [3]; [12]): 49%
- activity at 3 µg/mL (L1210 cells [3]; [13]): 36%
- activity at 3 µg/mL (L1210 cells [3]; [14]): 86%
- activity at 3 µg/mL (L1210 cells [3]; [15]): 163%
- activity at 10 µg/mL (L1210 cells [3]; [12]): 18%
- activity at 10 µg/mL (L1210 cells [3]; [13]): 11%
- activity at 10 µg/mL (L1210 cells [3]; [14]): 66%
- activity at 10 µg/mL (L1210 cells [3]; [15]): 137%
- inhibition at 10 µg/mL (L1210 cells [3]; 10 μg/ml, read-out: inhibition of DNA synthesis): 90%
- inhibition at 10 µg/mL (L1210 cells [3]; 10 μg/ml, read-out: inhibition of protein synthesis): 30%
- Protein synthesis in L1210 cells in culture (L1210 cells [3]; [16]): less affected
- RNA synthesis in L1210 cells in culture (L1210 cells [3]; [16]): not inhibited
- Virus Rating (VR) (Rhinovirus Type 1A): 0
- Virus Rating (VR) (Human Cytomegalovirus): 0.3
- Virus Rating (VR) [4]: 0
- 2-F-AraATP in L1210 cells (L1210 cells [5]; 9 and 18 hours after a single dose of 80 and 150 mg/kg): not found
- 2-F-AraATP in L1210 cells (L1210 cells [5]; 18 hours after a dose of 400 mg/kg): significant levels were present
- intracellular pools of 2-F-AraATP in L1210 cells (L1210 cells [5]; BDFl mice treated with 2-F-AraA alone, versus AraATP from AraA plus adenosine deaminase inhibitor): comparable
- level of F-AraATP in acid-soluble extracts (HPLC) (L1210 cells [5]; 1 to 6 hours after treatment): 30-50 nmoles/gm cells
- level of F-AraATP in acid-soluble extracts (HPLC) (L1210 cells [5]; 9 hours after treatment): none was detected
- levels of F-AraATP attainable in leukemia L1210 cells in mice, compared with AraATP after AraA (L1210 cells [5]; after administration of 2-F-AraA): much higher
